Assay results: publication PMC11828871, “Structural basis of anticancer drug recognition and amino acid transport by LAT1” (Nature Communications, 2025)

Legend:
LAT1 [1] = target: T1, LAT1 (Homo sapiens, UniProt Q01650); assay: cryo-EM structure ([…] Å, occluded); cis inhibition and counterflow assays in oocytes
T1 construct: gene SLC7A5; LAT1–CD98hc in lipid nanodiscs with Fab170; with CD98hc (4F2hc; SLC3A2)

LAT1 [2] = target: T2, LAT1 (Homo sapiens, UniProt Q01650, F252W); assay: inhibition of L-[…]Leu uptake in Xenopus oocytes; assay type: cell-based
T2 construct: gene SLC7A5; F252W LAT1 co-expressed with CD98hc in Xenopus oocytes; with CD98hc (4F2hc; SLC3A2)

LAT1 [3] = target: T1, LAT1; assay: cryo-EM structure in nanodiscs ([…] Å); IC50 from L-[…]Leu uptake in Xenopus oocytes; assay type: cell-based
LAT1 [4] = target: T3, LAT1 (Homo sapiens, UniProt Q01650, F400V); assay: inhibition of L-[…]Leu uptake in Xenopus oocytes; assay type: cell-based
T3 construct: gene SLC7A5; F400V LAT1 expressed in Xenopus oocytes; with CD98hc (4F2hc; SLC3A2)

LAT1 [5] = target: T1, LAT1; assay: cryo-EM structure (outward-open, nanodisc)

T1 sequence (Q01650 whole entry): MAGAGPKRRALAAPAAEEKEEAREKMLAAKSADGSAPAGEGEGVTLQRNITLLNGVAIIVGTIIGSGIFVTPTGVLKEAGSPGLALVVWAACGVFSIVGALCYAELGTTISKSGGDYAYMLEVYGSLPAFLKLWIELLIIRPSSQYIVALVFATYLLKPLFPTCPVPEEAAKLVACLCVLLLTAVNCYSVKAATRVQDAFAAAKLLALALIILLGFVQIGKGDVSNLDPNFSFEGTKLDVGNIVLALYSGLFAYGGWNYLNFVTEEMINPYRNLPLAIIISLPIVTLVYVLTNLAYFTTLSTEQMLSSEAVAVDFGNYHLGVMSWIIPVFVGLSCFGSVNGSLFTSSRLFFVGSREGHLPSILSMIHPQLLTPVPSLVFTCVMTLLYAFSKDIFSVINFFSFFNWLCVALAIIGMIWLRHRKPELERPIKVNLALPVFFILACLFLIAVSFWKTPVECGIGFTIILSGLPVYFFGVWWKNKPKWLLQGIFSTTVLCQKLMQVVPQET
T1 sequence (P08195 103-630 partner): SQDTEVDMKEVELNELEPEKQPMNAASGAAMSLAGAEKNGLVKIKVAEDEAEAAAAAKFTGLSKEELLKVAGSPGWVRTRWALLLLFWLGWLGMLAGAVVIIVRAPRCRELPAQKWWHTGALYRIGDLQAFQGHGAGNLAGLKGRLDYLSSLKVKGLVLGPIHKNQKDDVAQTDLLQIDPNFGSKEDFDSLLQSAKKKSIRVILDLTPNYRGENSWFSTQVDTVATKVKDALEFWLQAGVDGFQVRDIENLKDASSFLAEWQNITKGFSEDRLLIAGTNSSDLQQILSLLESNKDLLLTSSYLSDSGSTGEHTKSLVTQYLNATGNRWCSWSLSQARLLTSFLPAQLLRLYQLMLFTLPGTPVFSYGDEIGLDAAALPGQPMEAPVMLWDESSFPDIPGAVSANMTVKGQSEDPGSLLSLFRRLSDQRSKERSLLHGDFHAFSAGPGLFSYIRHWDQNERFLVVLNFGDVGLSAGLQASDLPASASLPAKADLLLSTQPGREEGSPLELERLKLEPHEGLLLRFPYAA
T3 sequence (Q01650 whole entry F400V): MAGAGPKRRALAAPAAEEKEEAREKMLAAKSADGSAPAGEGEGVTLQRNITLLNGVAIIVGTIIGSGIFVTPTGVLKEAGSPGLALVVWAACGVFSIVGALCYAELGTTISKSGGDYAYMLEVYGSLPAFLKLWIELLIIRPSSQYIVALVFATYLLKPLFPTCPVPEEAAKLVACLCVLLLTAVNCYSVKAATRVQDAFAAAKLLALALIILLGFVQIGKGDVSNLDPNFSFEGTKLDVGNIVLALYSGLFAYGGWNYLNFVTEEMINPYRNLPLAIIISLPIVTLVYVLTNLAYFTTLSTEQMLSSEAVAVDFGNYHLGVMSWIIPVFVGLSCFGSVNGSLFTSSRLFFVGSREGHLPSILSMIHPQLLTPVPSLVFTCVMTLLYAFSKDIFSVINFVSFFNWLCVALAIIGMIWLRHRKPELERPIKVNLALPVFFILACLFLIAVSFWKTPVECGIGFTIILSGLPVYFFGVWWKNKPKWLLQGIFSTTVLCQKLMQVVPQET
T3 sequence (P08195 103-630 partner): as the sequence (P08195 103-630 partner) above
T2 sequence (Q01650 whole entry F252W): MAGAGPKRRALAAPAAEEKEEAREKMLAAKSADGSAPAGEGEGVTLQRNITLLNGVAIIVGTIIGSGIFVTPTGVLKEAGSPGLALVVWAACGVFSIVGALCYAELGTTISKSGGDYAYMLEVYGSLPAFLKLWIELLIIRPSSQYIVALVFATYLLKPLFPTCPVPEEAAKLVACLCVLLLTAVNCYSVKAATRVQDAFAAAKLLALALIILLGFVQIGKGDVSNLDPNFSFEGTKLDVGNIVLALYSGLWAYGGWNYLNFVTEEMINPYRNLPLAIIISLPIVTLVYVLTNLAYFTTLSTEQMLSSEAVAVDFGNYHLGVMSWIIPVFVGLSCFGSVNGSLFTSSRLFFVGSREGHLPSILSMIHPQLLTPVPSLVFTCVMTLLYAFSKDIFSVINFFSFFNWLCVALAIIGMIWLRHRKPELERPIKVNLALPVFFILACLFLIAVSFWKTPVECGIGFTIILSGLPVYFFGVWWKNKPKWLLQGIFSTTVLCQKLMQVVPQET
T2 sequence (P08195 103-630 partner): as the sequence (P08195 103-630 partner) above

Q: With `NC1(C(=O)O)CC2CCC1C2` (centres unmarked) [BCH, 2-aminobicyclo[2.2.1]heptane-2-carboxylic acid] as the molecule, how does the “cryo-EM structure (3.7 Å, occluded); cis inhibition and counterflow assays in oo” value (LAT1 [1]) read?
A: Its value is “BCH is bound in the canonical substrate-binding pocket, with its carboxy and amino moieties recognized”.

Q: Which IC50 (LAT1 [2]) does the source give for `Nc1cc(COc2c(Cl)cc(C[C@H](N)C(=O)O)cc2Cl)c2oc(-c3ccccc3)nc2c1` [JPH203, (S)-2-amino-3-(4-((5-amino-2-phenylbenzo [d]oxazol-7-yl)methoxy)-3,5-dichlorophenyl) propanoic acid] here?
A: The IC50 was 36 nM.

Q: And the IC50 (LAT1 [3])?
A: The IC50 was 542 nM.

Q: And the “inhibition of L-[14C]Leu uptake in Xenopus oocytes” value (LAT1 [4])?
A: The value was “the variant F400V retained its activity and was sensitive to JPH203”.

Q: Which “cryo-EM structure (outward-open, nanodisc)” value (LAT1 [5]) does the source give for `N[C@@H](Cc1ccc(N(CCCl)CCCl)cc1)C(=O)O` [melphalan] here?
A: Its value is “bis-(2-chloroethyl)amino side group is placed in the space surrounded by TM3, TM6a and TM10”.
